In patent US8779005B2, “Salts of desvenlafaxine and a method of their preparation” (Zentiva k.s., priority 2009, dated 2014):

Tests used:
[1] = Measurement of the dissolution rate (USP Wood Apparatus, rotary disk method); assay type: physicochemical; conditions: for Dissolution rate constants at pH 2: pH 2 (0.01 M HCl), 37° C.; for Dissolution rate constants at pH 2 / Dissolution rate constants at pH 6.8: rotary disk; for Dissolution rate constants at pH 6.8: phosphate buffer of pH 6.8, 37° C.
Protocol: Measurement of the Dissolution Rate The dissolution rate of desvenlafaxine salts (Table 2) in water at various pH values was measured in a Varian-Vankel System, USP Wood Apparatus (rotary disk method). A disk with the diameter of 5 mm was prepared by compression from about 0.2 g of the substance.

[2] = Measurement of equilibrium solubility; conditions: 24-hour stirring; for Equilibrium solubility at pH 2: pH 2 (0.01 M HCl), 25° C.; for Equilibrium solubility at pH 6.8: phosphate buffer of pH 6.8, 25° C.; for solubility thermodynamic at 24 h: 25 °C, thermodynamic from solid
[3] = in vivo; cited from earlier work
[4] = dihydrate, Hemioxalate Trihydrate
[5] = 0.01 M HCl, pH 2, simulated gastric fluid, Equilibrium solubility at pH 2, pH 2 (0.01 M HCl)
[6] = phosphate buffer, pH 6.8, aqueous buffer, Equilibrium solubility at pH 6.8, phosphate buffer of pH 6.8, 25° C.

Row | Structure (SMILES) | Dissolution rate constants at pH 2 [1] [mg/cm^2/min] | Dissolution rate constants at pH 6.8 [1] [mg/cm^2/min] | Equilibrium solubility at pH 2 [2] [mg/ml] | Equilibrium solubility at pH 6.8 [2] [mg/ml] | Dissolution rate constants at pH 2 ([1]; Hemioxalate Trihydrate) [mg/cm^2/min] | Dissolution rate constants at pH 6.8 ([1]; Hemioxalate Trihydrate) [mg/cm^2/min] | Equilibrium solubility at pH 2 [2, 4] [mg/ml] | Equilibrium solubility at pH 6.8 [2, 4] [mg/ml] | solubility thermodynamic at 24 h [2, 5] [mg/mL] | solubility thermodynamic at 24 h [2, 6] [mg/mL] | Dissolution speed in water relative to hydrogen fumarate ([1]; in water, compared with hydrogen fumarate) | Biological availability (absorption of desvenlafaxine in rat intestine) relative to hydrogen fumarate [3]
1 | CN(C)CC(c1ccc(O)cc1)C1(O)CCCCC1 (centres unmarked) [Base, Desvenlafaxine] | 0.6 | 0.2 | 2 | 4 | – | – | – | – | – | – | – | –
2 | CN(C)CC(c1ccc(O)cc1)C1(O)CCCCC1 (centres unmarked) [Hemioxalate, anhydrous, Anhydrous Desvenlafaxine Hemioxalate] | 6.6 | 5.9 | 92 | 80 | – | – | – | – | – | – | – | –
3 | CN(C)CC(c1ccc(O)cc1)C1(O)CCCCC1 (centres unmarked) [Hemioxalate, hydrate, Desvenlafaxine Hemioxalate Trihydrate] | – | – | – | – | >10 | >10 | 86 | 71 | – | – | – | –
4 | CN(C)CC(c1ccc(O)cc1)C1(O)CCCCC1.O=C(O)/C=C/C(=O)O (centres unmarked) [Hydrogen fumarate hydrate, Desvenlafaxine hydrogen fumarate] | 0.8 | 0.8 | – | – | – | – | – | – | 8 | 8 | – | –
5 | CN(C)CC(c1ccc(O)cc1)C1(O)CCCCC1.O=C(O)C(=O)O (centres unmarked) [Hydrogen oxalate hydrate, Desvenlafaxine Hydrogen Oxalate Hydrate] | 7.1 | 6.0 | – | – | – | – | – | – | 89 | 63 | – | –
6 | CN(C)CC(c1ccc(O)cc1)C1(O)CCCCC1.O=C(O)CCC(=O)O (centres unmarked) [Hydrogen succinate hydrate, Desvenlafaxine hydrogen succinate] | 3.1 | 3.2 | – | – | – | – | – | – | 53 | 58 | approximately twice as fast | roughly three times higher
